Source: PMC8162404, “Proteomimetic surface fragments distinguish targets by function” (Chemical Science, 2020)
Read-outs that look alike come from different tables or passages of the source.

Legend:
Assay in all cases: Pull-down assay with immobilized protein and LSM libraries
CaM = molecular target: T1, CaM (Bos taurus, UniProt P62157); type: binding, bovine; conditions: H12 library; 1:2 stoichiometry assumed; read-out: Surface mapping KD (apparent)
T1 construct: made in house; host or cells: E. coli BL21 (DE3)
Outline: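 CaM buffer was 20 mM HEPES pH 7.4, 150 mM NaCl, 5 mM CaCl2. LSM sublibrary members ([…]) incubated 30 min, RT, with equimolar His-tagged protein on Co-NTA resin. HPLC-MS measured unbound probes; bound fraction relative to resin-only background gave dissociation constants.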

Gal-1 = molecular target: T2, Gal-1 (Homo sapiens, UniProt P09382); type: binding; conditions: H12 library; 1:1 binding assumed; read-out: Surface mapping KD (apparent)
T2 construct: made in house; host or cells: E. coli BL21(DE3)
T2 sequence (P09382 whole entry): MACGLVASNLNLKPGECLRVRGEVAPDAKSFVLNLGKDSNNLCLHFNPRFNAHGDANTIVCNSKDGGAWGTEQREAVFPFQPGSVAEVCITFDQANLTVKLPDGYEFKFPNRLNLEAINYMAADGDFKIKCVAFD
Outline: (§1)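 Buffers were HEPES pH 7.4 with 150 mM NaCl, plus 1 mM TCEP and 1 mM CaCl2 (50 mM HEPES) for S100A4 and S100B, 1 mM TCEP for Gal-1, and no additive for RecQ-WH. Immobilized protein at 64 µM was equilibrated 30 min with the LSM sublibrary, and unbound probes were measured by LC-MS.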

S100B = molecular target: T3, S100B (Homo sapiens, UniProt P04271); type: binding; conditions: H12 library; 1:1 binding assumed; read-out: Surface mapping KD (apparent)
T3 construct: made in house; host or cells: Escherichia coli BL21(DE3)
T3 sequence (P04271 1-92): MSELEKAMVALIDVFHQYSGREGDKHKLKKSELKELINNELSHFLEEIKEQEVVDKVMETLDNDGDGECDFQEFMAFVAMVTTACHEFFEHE
Outline: as §1

RecQ-WH = molecular target: T4, RecQ-WH (Escherichia coli, UniProt P15043); design: species or system E. coli; conditions: 1:1 binding assumed, read-out: Surface mapping KD (apparent)
T4 construct: coding for residues 408– 523 of E. coli RecQ; made in house; host or cells: E. coli BL21(DE3)
T4 sequence (P15043 408-523): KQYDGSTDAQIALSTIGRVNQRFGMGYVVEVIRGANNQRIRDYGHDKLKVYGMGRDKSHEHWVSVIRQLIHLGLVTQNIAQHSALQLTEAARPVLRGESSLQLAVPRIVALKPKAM
Experimental: Pull-down assays with immobilized test proteins and foldameric LSM libraries were carried out. Proteins were equilibrated with LSM probes, and equilibrium bound fractions (FB) were determined from the unbound fractions measured by HPLC-MS methods. Hits were corrected with background binding of the resin. The protocol allowed all binding events to equilibrate irrespective of affinity, specificity, and binding kinetics. This was essential to judge overall druggability and promiscuity. Importantly, the concentration of protein and the total concentration of foldameric LSMs were equimolar, which minimized competition between the probes. This experimental setup approximated independent binding of individual library members. Results were visualized as heat maps of dissociation constants (Fig. 3).
Pull-down assay and data analysis
Pull-down assay. LSM sublibraries were screened separately as previously described.(2) Experiments were performed in the following buffers: (i) 20 mM pH 7.4 HEPES, 150 mM NaCl, 5 mM CaCl2 for CaM; (ii) 50 mM pH 7.4 HEPES, 150 mM NaCl, 1 mM TCEP, 1 mM CaCl2 for S100 proteins; (iii) 20 mM pH 7.4 HEPES, 150 mM NaCl, 1 mM TCEP for Gal-1 and (iv) 20 mM pH 7.4 HEPES, 150 mM NaCl for RecQ-WH. Assays were performed in paper filter spin cups (Thermo Scientific) with sample volumes of 100 µl. Hexahistidine-tagged proteins were immobilized on previously washed Co-NTA resin (TALON, Takara Bio USA, Inc., Mountain View, CA) in 64 µM final concentration. LSM sublibrary was added, in which each of the 64 library members were used at a concentration of 1 µM. Samples were incubated at room temperature for 30 min with shaking at 100 rpm. Then, samples were centrifuged at 1000 rpm for 2 min and washed with 100 µl pull-down buffer to remove unbound compounds.
The control experiments were performed using the same compounds and the resin but without the immobilized protein. In case of competitive assays, competitor peptides were added to LSM sublibrary samples in 200 µM final concentration. In the case of Gal-1, lactose (competitor) was used in a concentration of 10 mM. Experiments were performed at least twice. Mean […]
LC-MS methods and parameters. HPLC/ESI-MS analysis was used to characterize the samples from the pull-down assay. LC-MS analysis was performed with a Thermo Scientific Dionex UltiMate 3000 HPLC system interfaced to an LTQ ion trap mass spectrometer (Thermo Electron Corp., San Jose, CA, USA). Samples were injected onto an Aeris Widepore XB-C18 (250 x 4.6 mm) analytical HPLC column using gradient elution 5-80 % solution B during 25 minutes. For pull-down samples, eluent composition was 0.1% acetic acid in distilled water (Solution A) and 0.1% acetic acid in acetonitrile (solution B). Mass spectra were acquired in full scan mode from 200 to 2000 m/z range. For overlapping peaks, selective reaction monitoring (SRM) was […]
MS data analysis. Thermo Xcalibur 2.2 software was used for peak identification and integration. The majority of the foldameric fragments could be resolved independently via HPLC-MS/MS measurements based on molecular weight, MS fragmentation pattern and retention time. Peaks of some foldamers with β3-hIle or β3-hLeu in position R2 could not be resolved, these were integrated and averaged. In the processing method, each sample component was associated to a chromatographic peak based on previously identified mass (m/z) and retention time (ref (2) and Table S7-10). Using ICIS peak detection algorithm, the general detection and integration criteria were: smoothing points: 5, baseline window: 80, area noise factor: 5, peak noise factor: 10. Using these processing setups, all raw data files were reprocessed together and analyzed. Errors in peak identification during the automatic processing were corrected manually.
Calculation of the discussed parameters
1. Bound fractions (FB.) were calculated from the HPLC-MS intensity loss of the LSM probes compared to the control where no protein was immobilized to the resin: […]

S100A4 = molecular target: T5, S100A4 (Homo sapiens, UniProt P26447); type: binding; conditions: H12 library; 1:1 binding assumed; read-out: Surface mapping KD (apparent)
T5 construct: made in house; host or cells: Escherichia coli BL21(DE3)
T5 sequence (P26447 whole entry): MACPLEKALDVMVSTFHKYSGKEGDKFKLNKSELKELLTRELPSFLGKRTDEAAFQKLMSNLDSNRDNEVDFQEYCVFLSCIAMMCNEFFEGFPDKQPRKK
Outline: as §1

For NCCCC[C@@H](CC(=O)N[C@H]1CCC[C@@H]1C(=O)N[C@H]1CCC[C@@H]1C(N)=O)NC(=O)[C@H]1CCC[C@@H]1NC(=O)[C@H]1CCC[C@@H]1NC(=O)C[C@H](Cc1ccccc1)NC(=O)[C@H]1CCC[C@@H]1NC(=O)[C@H]1CCC[C@@H]1N [H12 FK], the Kd (CaM) was 448 µM, the Kd (Gal-1) was 246 µM and the Kd (S100B) was 37 µM. It also gave a Kd (RecQ-WH; H12 library) of 337 µM.
Molecule N=C(N)NCCC[C@@H](CC(=O)N[C@H]1CCC[C@@H]1C(=O)N[C@H]1CCC[C@@H]1C(N)=O)NC(=O)[C@H]1CCC[C@@H]1NC(=O)[C@H]1CCC[C@@H]1NC(=O)C[C@H](Cc1ccccc1)NC(=O)[C@H]1CCC[C@@H]1NC(=O)[C@H]1CCC[C@@H]1N [H12 FR] has a Kd (CaM) of 125 µM, a Kd (Gal-1) of 141 µM and a Kd (S100B) of 28 µM. For the same molecule, the Kd (RecQ-WH; H12 library) was 388 µM.
Molecule CC(C)C[C@@H](CC(=O)N[C@H]1CCC[C@@H]1C(=O)N[C@H]1CCC[C@@H]1C(=O)N[C@@H](CCCCN)CC(=O)N[C@H]1CCC[C@@H]1C(=O)N[C@H]1CCC[C@@H]1C(N)=O)NC(=O)[C@H]1CCC[C@@H]1NC(=O)[C@H]1CCC[C@@H]1N [H12 LK] has a Kd (S100B) of 54 µM and a Kd (RecQ-WH; H12 library) of 434 µM.
With CSCC[C@@H](CC(=O)N[C@H]1CCC[C@@H]1C(=O)N[C@H]1CCC[C@@H]1C(=O)N[C@@H](CCCNC(=N)N)CC(=O)N[C@H]1CCC[C@@H]1C(=O)N[C@H]1CCC[C@@H]1C(N)=O)NC(=O)[C@H]1CCC[C@@H]1NC(=O)[C@H]1CCC[C@@H]1N [H12 MR] the Kd (Gal-1) was 186 µM, the Kd (S100B) was 59 µM and the Kd (RecQ-WH; H12 library) was 435 µM.
NCCCC[C@@H](CC(=O)N[C@H]1CCC[C@@H]1C(=O)N[C@H]1CCC[C@@H]1C(N)=O)NC(=O)[C@H]1CCC[C@@H]1NC(=O)[C@H]1CCC[C@@H]1NC(=O)C[C@H](Cc1c[nH]c2ccccc12)NC(=O)[C@H]1CCC[C@@H]1NC(=O)[C@H]1CCC[C@@H]1N [H12 WK] was tested, and the Kd (Gal-1) was 266 µM, the Kd (S100B) was 26 µM and the Kd (RecQ-WH; H12 library) was 431 µM.
In the case of N=C(N)NCCC[C@@H](CC(=O)N[C@H]1CCC[C@@H]1C(=O)N[C@H]1CCC[C@@H]1C(N)=O)NC(=O)[C@H]1CCC[C@@H]1NC(=O)[C@H]1CCC[C@@H]1NC(=O)C[C@H](Cc1c[nH]c2ccccc12)NC(=O)[C@H]1CCC[C@@H]1NC(=O)[C@H]1CCC[C@@H]1N [H12 WR], the Kd (CaM) is reported as 226 µM, the Kd (S100A4) is reported as 326 µM and the Kd (S100B) is reported as 15 µM. For the same molecule, the Kd (RecQ-WH; H12 library) was 206 µM.
For NC(=O)[C@H]1CCC[C@@H]1NC(=O)[C@H]1CCC[C@@H]1NC(=O)C[C@H](CO)NC(=O)[C@H]1CCC[C@@H]1NC(=O)[C@H]1CCC[C@@H]1NC(=O)C[C@H](Cc1c[nH]c2ccccc12)NC(=O)[C@H]1CCC[C@@H]1NC(=O)[C@H]1CCC[C@@H]1N [H12 WS], the Kd (Gal-1) was 413 µM, the Kd (S100B) was 54 µM and the Kd (RecQ-WH; H12 library) was 420 µM.
In the case of NCCCC[C@@H](CC(=O)N[C@H]1CCC[C@@H]1C(=O)N[C@H]1CCC[C@@H]1C(N)=O)NC(=O)[C@H]1CCC[C@@H]1NC(=O)[C@H]1CCC[C@@H]1NC(=O)C[C@H](Cc1ccc(O)cc1)NC(=O)[C@H]1CCC[C@@H]1NC(=O)[C@H]1CCC[C@@H]1N [H12 YK], the Kd (CaM) is reported as 42 µM, the Kd (Gal-1) is reported as 371 µM and the Kd (S100B) is reported as 86 µM. For the same molecule, the Kd (RecQ-WH; H12 library) was 280 µM.
Work on CC[C@H](C)[C@@H](CC(=O)N[C@H]1CCCC[C@@H]1C(N)=O)NC(=O)[C@H]1CCCC[C@@H]1NC(=O)[C@H]1CCCC[C@@H]1NC(=O)C[C@H](CCC(=O)O)NC(=O)[C@H]1CCCC[C@@H]1N [H14 EI] yielded a Kd (RecQ-WH; H14 library) of 444 µM.
